Assay results: patent publication US9650674B2, “Nucleic acid probes and methods of using the same” (Board of Trustees University of Arkansas, priority 2012, dated 2017)
{Cy5.5} = Cy5.5 cyanine dye label

Columns and labels:
[1] = Baseline fluorescence of hairpin DNA probes; type: physicochemical; settings: correlated with length of protruded DNA end; FIG. 1B
From the text: It was impossible to determine if the background fluorescence was attributed to the probe or it originated from a partial degradation of the probe. Consequently, the NIRF probes were designed as hairpins to allow testing the integrity of DNA by its denaturing followed by reannealing. The use of hairpin also allows easy measurement of the maximum fluorescence of the probe. The distance between two fluorophores varied by changing of protruding DNA strand length from +0 (AB259.1 probe) to +5 (AB259.3 probe) or to +10 (AB259.5 probe) as shown in FIG. 1A. The baseline fluorescence of probe AB259.1 was 30% higher than negative control without a probe (FIG. 1B).
(§1) All cell-free experiments were performed using the Bio-Tek Synergy 5 fluorescent plate reader. Before experiments, optimal excitation and emission wavelengths were determined. For this, excitation and emission were scanned in the ranges of 600-680 nm and 690-705 nm, respectively. The optimal excitation/emission was determined to be 665/703 nm. All kinetic and endpoint measurements were done in a total volume of 100 μl at 37° C. Unless stated otherwise, DNA substrate was used in final concentration 0.5 μM reconstituted in endonuclease activity assay (EAA) buffer (2 mM CaCl2, 5 mM MgCl2, 10 mM Tris-HCl, pH 7.4) in a 96-well plate. After measurement of starting fluorescence, DNase I or tested material (diluted 1:20 urine or 1:100 serum) were added to the reconstituted probe, rapidly mixed and fluorescence was monitored for up to 60 min with 30-sec intervals. In some instances, EDTA (final concentration 200 μM) or NaOH (50 mM) was added to terminate the reaction. For the experiments that involved assessment of fluorescence after DNA denaturing, probes were tested in Cepheid real-time PCR system using Cy5 setting (Sunnyvale, Calif.).

[2] = Heat denaturing and reannealing of hairpin probes (probe integrity); type: physicochemical; settings: ROX internal reference; above background; FIG. 1C
Procedure: To ensure the integrity of the DNA probes, it was tested whether a heat denaturing of the hairpins would cause an increase in fluorescence, and if a reannealing would reverse it. To compensate for thermal change of fluorophore's emission, the ROX fluorophore was added to tested probes as an internal reference.
as §1

[3] = Alkaline denaturing of probes, kinetic fluorescence; type: physicochemical; settings: alkaline buffer
Procedure: Lastly, the probes' integrity was tested by alkaline denaturing. The probes were treated with alkaline buffer and kinetic detection of the fluorescence was performed. […] AB259.1, AB259.3 and AB259.5 gained 40%, 81%, and 85% of fluorescence, respectively.
as §1

DNase I = biological target: T1, DNase I (Homo sapiens, UniProt P24855); experiment: Kinetic fluorescence of probes exposed to DNase I in vitro; type: biochemical
T1 construct: purchased Sigma (St. Louis, Mo.)
T1 sequence (P24855 23-282): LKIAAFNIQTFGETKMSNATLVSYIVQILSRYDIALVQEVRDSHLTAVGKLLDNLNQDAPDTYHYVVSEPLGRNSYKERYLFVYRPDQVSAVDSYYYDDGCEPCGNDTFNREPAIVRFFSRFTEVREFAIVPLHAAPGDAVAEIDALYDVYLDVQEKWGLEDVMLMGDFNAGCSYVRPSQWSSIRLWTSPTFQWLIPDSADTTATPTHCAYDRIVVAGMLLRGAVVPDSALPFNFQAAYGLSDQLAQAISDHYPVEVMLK
Procedure: It was hypothesized that exposure of the probes to endonucleases would lead to DNA cleavage and dissociation of protruded strand from the hairpin (FIG. 2A). To assess which of the proposed probes is the best to measure endonuclease activity, the probes (0.5 μM) were exposed with recombinant human DNase I (1 μg/ml) and the kinetic fluorescence curves were recorded. Twenty min into the reaction, AB259.1, AB259.3 and AB259.5 gained 1.75-, 2.6- and 1.62-fold fluorescence, respectively, compared to the baseline (FIG. 2B). At 20-25 min, AB259.1 and AB259.3 reached the plateaus. […] Therefore, AB259.3 was chosen for further experiments.
To detect specificity of the assay to DNase I that is a Ca/Mg-dependent endonuclease, AB259.3 probe was tested with 1 μg/ml DNase I in the presence of Ca++ and Mg++ (EAA buffer), in absence of the cations (deionized water), or in excess of EDTA (200 μM). […] Finally, it was tested whether AB259.3 probe will detect inhibition of DNase I activity by DNase I inhibitors such as ZnCl2 and Zn-diisopropyl salicylate (Zn-DIPS).
as §1

[4] = test system: wild-type (WT) mouse kidney cryosections; experiment: Endonuclease activity ex vivo in kidney cryosections; settings: 5 μM probe, EAA buffer, 37° C.
Procedure: Next it was examined whether AB259.3 probe can be used for measurement of endonuclease activity in tissue sections. Kidneys were used because they are known for high activity of DNase I (Ca/Mg-dependent endonuclease). Freshly prepared 10 μm thick cryosections of wild-type (WT) mouse kidney were exposed with 5 μM AB259.3 probe in presence of EAA buffer at 37° C. and time-lapse imaged for 10 min with 1-min intervals.
Specimens of kidney, liver, spleen and testis tissues were removed from euthanized mice, immersed in OCT medium, rapidly frozen by Fisher Freeze-it and kept on dry ice for no longer than 1 hour prior slicing. Tissue cryosections (8-μm thick) were prepared using the Microm HM 505E cryotome, placed to the Fisher Plus slides and immediately exposed with 0.5 μM AB259.3 probe diluted in EAA buffer. In control samples, applied probe contained EAA buffer supplemented with 200 μM EDTA. Images were taken in 628/40-692/40 spectrum every 30 sec for 10 min in 10 random XY coordinates. Three sections from each specimen were analyzed separately. Maximal velocity of increasing fluorescence was averaged for each section.

WT and DNase I KO mice [5] = experiment: Cy5.5 fluorescence in organs isolated after intravenous probe injection (Xenogen-IVIS); type: in vivo, mouse; settings: 50 nmol/kg intravenous, 1 or 3 hours after injection; FIG. 6
Procedure: In the next set of experiments, it was tested whether AB259.3 probe is suitable for in vivo measurement of DNase I and endonuclease activity in internal organs. For this, WT and DNase I KO mice were subjected to intravenous administration of AB259.3 probe (50 nmol/kg). The organs including brain, heart, lung, muscle, bone (femur), liver, pancreas, salivary gland, jejunum, spleen, kidney and testicles were collected in 1 or 3 hours after injection and measured for Cy5.5 fluorescence using a Xenogen-IVIS instrument. […] Kidneys, pancreas, salivary glands and lungs were among those that had the most prominent relative increase of Cy5.5 fluorescence in WT mice with markedly lower level of fluorescence in DNase I KO mice. Despite highest absolute fluorescence values in gut and liver, relative gain of fluorescence in these organs was quite modest due to the high background autofluorescence.
Kidney ischemia-reperfusion was performed as previously reported. […] The liposomes were prepared as described previously.

WT and DNase I KO mice [6] = experiment: Intravital assessment in other organs (bilateral kidney ligation or cationic liposomes); settings: imaging 3 hours after injection; FIGS. 10A and 10B
Procedure: To check an ability of probe to measure endonuclease activity on other organs, the renal distribution of AB259.3 probe was challenged by two complementary approaches. First group of mice was subjected to bilateral kidney ligation followed by intravital administration of AB259.3 probe and imaging in 3 hours after injection. […] Another group of mice was injected with AB259.3 probe packed in cationic liposomes in attempt to make probe delivery bioavailable to all organs and tissues and less specific to kidneys.
Male DNase I KO mice and their WT counterparts at the age 8-10 weeks were used for all experiments. All procedures with mice were performed under general anesthesia with 50 mg/kg ketamine. For subcutaneous administration, mice were injected with 10 μl of 0.1 μM AB259.3 in the dorsal subcutaneous site. For systemic visualization, AB259.3 was injected intravenously at 50 nmol/kg in tail vein. […] Bilateral kidney ligation was performed on anesthetized DNase I KO or WT mice. Renal pedicles were surgically ligated using 4.0 silk sutures. […]
Imaging of live and euthanized mice or their isolated organs were performed using Xenogen IVIS Image System 200 (Caliper Life Sciences, Hopkinton, Mass.) equipped with Living Image® Software. […] Quantification of the manually designated areas was performed based on average radiant efficiency with the fixed min-max dynamic range.

[Cy5.5]AACACTCCGATGAGTGTAGAATGT[Cy5.5] (DNA, 5' {Cy5.5}, 3' {Cy5.5}, backbone not given here) [AB259.3]
baseline fluorescence (in words) [1]: much higher levels of the baseline fluorescence | gain of fluorescence on heat denaturing [2]: 2.8 times | gain of fluorescence on alkaline denaturing [3]: 81% | dependence of kinetic reaction on DNase I concentration (DNase I; different concentrations of DNase I, FIG. 2C): linear correlation between mean velocity (Vm) of the kinetic reaction and DNase I concentration | gain of fluorescence compared to baseline (DNase I; probe 0.5 μM, DNase I 1 μg/ml, twenty min into the reaction, FIG. 2B): 2.6 fold | time to plateau of fluorescence [4]: 2 to 3 min | increase of Cy5.5 fluorescence compared to starting point ([4]; 10 min, FIGS. 5A and 5B): 2.5 times | organ fluorescence after injection (in words) (WT and DNase I KO mice [5]): kidneys appeared to be the most visibly distinctive organ | probe accumulation after bilateral kidney ligation (WT and DNase I KO mice [6]): accumulation in kidneys was completely abolished
